Measurements reported in patent US20230256094A1, “CANCER RADIOSENSITIZATION BY IN SITU FORMATION OF GOLD NANOPARTICLES AND/OR GOLD NANOCLUSTERS” (BOARD OF REGENTS, THE UNIVERSITY OF TEXAS SYSTEM, priority 2020, published 2023).

Experiments:
[1] = system: 3T3 mouse fibroblast cells; assay: MTS assay of radiosensitization after X-ray irradiation; assay type: cell-based; settings: 0 Gy
Description: Our initial evaluation of radiosensitization via intracellular GNP formation was performed with 3T3 mouse fibroblast cells. […] Radiosensitization with intracellular GNC formation (i.e., delivery of Au^3+) was compared with pre-fabricated albumin-coated GNCs (Albumin-GNC) prepared according to work by Xie^46 and control cells without treatment via MTS assay (FIG. 3B).
3T3 cells were first incubated with either 1 mM of sodium chloroaurate or albumin-GNCs (0.1 mM Au^0)in cell culture media for 10 hours. Then, the cells including the nontreated control were irradiated with X-rays at dosages of 0, 4 and 6 Gy in the X-ray X-RAD 225 CX irradiator system (Precision).
In our future studies we will use a standard clonogenic survival assay for quantitation of the radiosensitization effect.

[2] = system: pancreatic cancer cells (MIAPACA2); assay: Confocal fluorescence imaging of in situ GNC synthesis; assay type: cell-based, human; settings: MIAPACA2; 1 mM, 24 hours; 561 nm excitation, 610 nm emission
Description: FIG. 4 presents fluorescence confocal images of non-cancerous (HPDE) and cancerous (MIAPaCa2) pancreatic cells treated with either 1 mM of Au^3+ gold ions or premade albumin-GNCs at 1 mM Au^0 for 24 hours. (From left to right) Cells: untreated; treated with albumin-GNCs; treated with Au^3+ gold ions. […] The strong red fluorescence in cancer cells indicated intracellular synthesis of GNCs from gold ions. Scale bars are 25 μm.
We compared in situ synthesis of GNCs by pancreatic cancer cells (MIAPACA2) and pancreatic noncancerous cells (HPDE) (FIG. 4). Confocal fluorescence images were obtained using a Leica TCS SP8 confocal microscope with 561 nm excitation and 610 nm emission optimized for detection of GNCs.

[3] = system: pancreatic cancer cells (LTPA) vs pancreatic non-cancerous cells (MS1); assay: Confocal fluorescence imaging of intracellular GNC formation, cancerous vs non-cancerous cells; assay type: cell-based
Description: Hoechst 33342 stain was used for nuclear contrast. Red channel was used for detection of GNCs with 610 nm emission and 561 nm laser excitation. Scale bars are 25 μm.
Our initial evaluation of intracellular gold nanocluster formation was performed with pancreatic cancer cells (LTPA) and pancreatic non-cancerous cells (MS1) (FIG. 6A-6B). […] Live cell nuclear stain, Hoechst 33342, was used to define the location of nuclei.
Radiosensitization due to intracellular GNC formation (i.e., delivery of Au^3+) was compared between cancerous and non-cancerous cells using a standard clonal assay. For radiosensitization, cells were incubated with 0.1 mM of buffered chloroauric acid in cell culture media for 24 hours. Then, the cells were lifted and plated in 30 mm culture dishes at optimized cell densities for observation of colony formation following irradiation with X-rays at dosages ranging from 0 to 8 Gy (XRAD SmART). […] The radiosensitization results correlated well with the fluorescence images showing greater production of GNCs by cancerous cells (FIG. 6A-6B). For LTPA pancreatic cancer cells the surviving fraction values decreased by a factor of 2.3x and 3.5x for radiation of 4 Gy and 6 Gy, respectively, in cells treated with gold atoms compared to untreated control (FIG. 6B). […]

[4] = system: LTPA pancreatic cancer cells; assay: Clonogenic assay after X-ray irradiation; assay type: cell-based; settings: 0.1 mM, 24 hours; for radiosensitization effect as compared to untreated control: cancer cells, X-rays 0 to 8 Gy
Description: (§1) Radiosensitization due to intracellular GNC formation (i.e., delivery of Au^3+) was compared between cancerous and non-cancerous cells using a standard clonal assay. For radiosensitization, cells were incubated with 0.1 mM of buffered chloroauric acid in cell culture media for 24 hours. Then, the cells were lifted and plated in 30 mm culture dishes at optimized cell densities for observation of colony formation following irradiation with X-rays at dosages ranging from 0 to 8 Gy (XRAD SmART). […] The radiosensitization results correlated well with the fluorescence images showing greater production of GNCs by cancerous cells (FIG. 6A-6B). For LTPA pancreatic cancer cells the surviving fraction values decreased by a factor of 2.3x and 3.5x for radiation of 4 Gy and 6 Gy, respectively, in cells treated with gold atoms compared to untreated control (FIG. 6B). This relative decrease in surviving fraction is similar or better than previously reported values observed in cells treated with pre-synthetized GNPs. We believe that the observed improvement in radiation efficiency in killing cancer cells might be associated with a strong nuclear localization of in situ synthetized GNCs.

[5] = system: pancreatic non-cancerous cells (MS1); assay: Clonogenic assay after X-ray irradiation; assay type: cell-based; settings: 0.1 mM, 24 hours, X-rays 0 to 8 Gy
Description: as §1

Mia-PaCa-2 cells = assay: Fluorescence of in situ synthesis vs uptake of prefabricated GNCs; assay type: cell-based, human; settings: 1.00 mM, 24 hr (FIG. 8B)
Description: (§2) Hoechst nuclear stain is the only imaging source in the untreated column and the primary imaging source in the albumin-GNC column and the non-cancer Au^3+ panel. Cells are live during imaging. Scale bars are 10 μm.
(§3) FIG. 8B quantifies GNC channel pixel intensity of the samples in each of the rows of FIG. 8A.
(§4) 2.2. Comparisons of efficiency of the GNC in situ synthesis by cancer and normal cells. We compared GNC biosynthesis between normal (HPDE) and cancerous (Mia-PaCa-2 and PANC1) pancreatic cells using fluorescent confocal microscopy (FIG. 8A). In addition, we compared the efficiency of the intracellular synthesis with extracellular uptake of prefabricated albumin coated GNCs (FIG. 8A). […] Further, there was 12.20- and 7.69-times greater fluorescence due to in situ synthesis relative to cellular uptake of prefabricated GNCs in PANC1 and Mia-PaCa-2 cells, respectively (FIG. 8B).

PANC1 cells = assay: as above; assay type: cell-based, human; settings: 1.00 mM, 24 hr (FIG. 8B)
Description: as §2, §3, §4

PANC1 pancreatic cancer [6] = assay: gamma H2AX foci quantification of double stranded DNA breaks; assay type: cell-based, human
Description: FIG. 21 reports on a mechanistic study of radiosensitization quantifying gamma H2AX foci through fluorescent antibody staining measured at 0, 4, and 24 hours, resulting from 24 hour 0.20 mM Au^3+ treatments (lower three) compared against non-treated (upper three) combined with either 0 Gy or 8 Gy x-ray irradiation. Treatments are in full cell media to PANC1 pancreatic cancer.
2.5. Evaluate radiosensitization efficacy and radiosensitization mechanisms for in situ synthetized GNCs. Based on the studies described in Sections 2.3-2.4, we selected the following conditions for radiosensitization studies in cell culture: 24 hr media conditioning by cells, 10% FBS (v/v) within, and 0.20 mM Au^3+ for 24 hrs.
(§5) Further, we characterized the mechanisms of radiosensitization through (i) quantification of double stranded DNA breaks via y-H2AX Foci (FIG. 21), (ii) mitochondrial polarization via JC-1 assay (FIG. 22), (iii) NADP total (FIG. 23) and NADP:NADPH ratio (FIG. 24) via NADP(H) assay, and (iv) peroxidation production via TBARS assay (FIG. 25).

PANC1 pancreatic cancer [7] = assay: TBARS assay of peroxidation product formation; assay type: cell-based, human; settings: 24 hr post irradiation
Description: FIG. 25 reports on a mechanistic study of radiosensitization quantifying the ratio of peroxidation product formation resulting from X-ray damage through TBARS assay, resulting from 24 hour, 0.20 mM Au^3+ treatments (right) compared against non-treated (left) combined with either 0 Gy or 8 Gy x-ray irradiation. Treatments are in full cell media to PANC1 pancreatic cancer.
as §5

[8] = system: PANC1 xenografts in nu/nu mice; assay: Tumor volume after 10 Gy X-ray irradiation in xenografts; assay type: in vivo; settings: 48 hours after treatment with 1.00 mM
[9] = listed as buffered chloroauric acid

[Au+3].[Cl-].[Cl-].[Cl-].[Cl-].[H+] [Au^3+, chloroauric acid]
cell viability / cytotoxicity, treated vs untreated cells [1]: no difference in cell viability
cell viability / cytotoxicity, treated vs untreated cells ([1]; listed as chloroauric acid): not cytotoxic
GNC fluorescence / GNC formation [2]: ubiquitous
GNC formation in cancerous cells as compared to non-cancerous cells [3]: striking increase in GNC formation
factor of decrease of surviving fraction compared to untreated control ([4]; 4 Gy): 2.3 x
factor of decrease of surviving fraction compared to untreated control ([4]; 6 Gy): 3.5 x
radiosensitization effect as compared to untreated control [4]: significant radiosensitization effect
radiosensitization effect as compared to untreated control [4, 9]: significantly greater radiosensitization effect
radiosensitization in non-cancerous cells [5]: no radiosensitization
radiosensitization in non-cancerous cells [5, 9]: no significant radiosensitization
greater fluorescence due to in situ synthesis relative to cellular uptake of prefabricated GNCs (Mia-PaCa-2 cells): 7.69 times
greater fluorescence due to in situ synthesis relative to cellular uptake of prefabricated GNCs (PANC1 cells): 12.20 times
fewer DNA breaks than in untreated control (PANC1 pancreatic cancer [6]; 4 hrs after 8 Gy irradiation, 0.20 mM, 24 hrs): 29%
repair of DNA breaks (PANC1 pancreatic cancer [6]; 24 hr post-irradiation, 8 Gy): no significant repair
increase in peroxidation product formation (PANC1 pancreatic cancer [7]): ~2 x
radiosensitization effect by tumor volume measurements [8]: evidence of radiosensitization effect
